According to PubChem BioAssay (NCI):
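Step 1: Grow cells in 96-well plates. Step 2: Expose to compound for 48 hours at 5 concentrations. Step 3: Interpolate endpoints linearly; if unreached, use highest concentration. GI50 is the concentration that inhibits growth by half. TGI is the concentration that stops growth completely.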

Tests used:
Experiment in all cases: NCI-60 cell line screen, 48 h
[1] = tested on: HL-60(TB) leukemia
[2] = tested on: SNB-75 CNS
[3] = tested on: SN12C renal
[4] = tested on: SK-MEL-2 melanoma
[5] = tested on: MALME-3M melanoma
[6] = tested on: A498 renal
[7] = tested on: HOP-62 NSCLC
[8] = tested on: OVCAR-8 ovarian
[9] = tested on: M14 melanoma
[10] = tested on: SF-295 CNS

SMILES: O=c1cc(N=Nc2ccc(O)cc2)[nH]c(=O)[nH]1
- TGI [1]: > 100 µM
- TGI [2]: 89.9 µM
- TGI [3]: > 100 µM
- TGI [4]: > 100 µM
- TGI [5]: 89.2 µM
- TGI [6]: > 100 µM
- TGI [7]: > 100 µM
- TGI [8]: > 100 µM
- TGI [9]: > 100 µM
- TGI [10]: > 100 µM

SMILES: COc1ccc2c(c1)C(C)Cc1c(Cl)nc(C)nc1N2C (stereo not given)
- GI50 [1]: 2.54 µM
- TGI [1]: > 100 µM
- GI50 [2]: 1.94 µM
- TGI [2]: 9.04 µM
- GI50 [3]: 7.22 µM
- TGI [3]: 25.1 µM
- GI50 [4]: 10.6 µM
- TGI [4]: 29.5 µM
- GI50 [5]: 12.4 µM
- TGI [5]: 37.8 µM
- GI50 [6]: 6.79 µM
- TGI [6]: 25 µM
- GI50 [7]: 2.22 µM
- TGI [7]: 36.3 µM
- GI50 [8]: 3.58 µM
- TGI [8]: 15.4 µM
- GI50 [9]: 1.34 µM
- TGI [9]: 12.4 µM
- GI50 [10]: 1.74 µM
- TGI [10]: 7.92 µM

SMILES: COc1cc2c3c(n(C)c(=O)c2cc1OC)-c1cc2c(cc1/C3=C\C(N)CN)OCO2 (stereo not given)
- GI50 [1]: 8.69 µM
- TGI [1]: > 100 µM
- GI50 [2]: 3.6 µM
- TGI [2]: > 31.3 µM
- GI50 [3]: 1.81 µM
- TGI [3]: > 26.4 µM
- GI50 [4]: 4.71 µM
- TGI [4]: > 22.8 µM
- GI50 [5]: 0.284 µM
- TGI [5]: 4.04 µM
- GI50 [6]: 1.37 µM
- TGI [6]: 9.77 µM
- GI50 [7]: 1.29 µM
- TGI [7]: 8.91 µM
- GI50 [8]: 1.75 µM
- TGI [8]: 18.8 µM
- GI50 [9]: 2.23 µM
- TGI [9]: 7.26 µM
- GI50 [10]: 1.31 µM
- TGI [10]: 7.79 µM
